Results from US4229435A, “Preparation of blood fraction” (priority 1978, dated 1980).

What was measured:
Format in all cases: biochemical
F VII = molecular target: T1, F VII (Homo sapiens, UniProt P08709); experiment: Coagulation factor VII activity in plasma after reducing agent + iodoacetic acid; conditions: 5 min 37° C., then iodoacetic acid
T1 construct: from tissue; host or cells: human citrated blood plasma
T1 sequence (P08709 61-466): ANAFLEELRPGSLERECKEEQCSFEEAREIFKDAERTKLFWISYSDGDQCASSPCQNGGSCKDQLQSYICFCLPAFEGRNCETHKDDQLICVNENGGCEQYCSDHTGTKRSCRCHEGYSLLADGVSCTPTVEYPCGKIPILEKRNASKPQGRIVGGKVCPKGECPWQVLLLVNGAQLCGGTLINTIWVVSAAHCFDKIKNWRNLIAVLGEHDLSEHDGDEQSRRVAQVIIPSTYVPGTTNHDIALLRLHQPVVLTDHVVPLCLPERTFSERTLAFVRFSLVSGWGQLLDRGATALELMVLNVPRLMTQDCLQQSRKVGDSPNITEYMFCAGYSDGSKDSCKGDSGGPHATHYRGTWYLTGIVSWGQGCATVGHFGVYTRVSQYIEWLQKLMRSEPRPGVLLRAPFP
Description: (§1) Human blood with anti-coagulating agent (9 parts blood+1 part 3.8% trisodium citrate) is centrifuged and the following tests with plasma were carried out:
(§2) The plasma is divided into 8 ml portions, which are preheated at 37° C. for 5 min. DTT is added in different concentrations, see table 1 below, and is incubated for 5 min. at 37° C. Then iodoacetic acid, 3 mol per mol DTT, is added, and incubation takes place for 15 min. at 37° C. The plasma samples are distributed in portions of about 0.2 ml and are immediately frozen at -70° C. Testing of different coagulation factors is made in known manner.
(§3) The plasma is divided into 8 ml portions, which are preheated at 37° C. for 5 min. DTE is added in different concentrations (see table 2), and is incubated for 5 minutes at 37° C. Then, iodoacetic acid (3 mol per mol DTE) is added and incubation is carried out for 15 minutes at 37° C. The plasma samples are distributed in portions of about 0.2 ml and are immediately frozen at -70° C. Testing of different coagulation factors is made in a manner known per se.
(§4) The plasma is divided into 8 ml portions, which are preheated at 37° C. for 5 minutes. Lipoic acid is added in different concentrations (see table 3), and is incubated for 5 minutes at 37° C. Then, iodoacetic acid (3 mol per mol lipoic acid) is added and incubation is carried out for 15 minutes at 37° C. The plasma samples are distributed in portions of about 0.2 ml and are immediately frozen at -70° C. Testing of different coagulation factors is made in a manner known per se.
(§5) The plasma is divided into 8 ml portions, which are preheated at 37° C. for 5 minutes. Mercaptoethanol is added in different concentrations (see table 4), and is incubated for 5 minutes at 37° C. Then, iodoacetic acid (3 mol per mol mercaptoethanol) is added and incubation is carried out for 15 minutes at 37° C. The plasma samples are distributed in portions of about 0.2 ml and are immediately frozen at -70° C. Testing of different coagulation factors is made in a manner known per se.
(§6) The plasma is divided into 8 ml portions, which are preheated at 37° C. for 5 minutes. Potassium borohydride is added in different concentrations (see table 5, and is incubated for 5 minutes at 37° C. Then, iodoacetic acid (3 mol per mol potassium borohydride) is added and incubation is carried out for 15 minutes at 37° C. The plasma samples are distributed in portions of about 0.2 ml and are immediately frozen at -70° C. Testing of different coagulation factors is made in a manner known per se.

F IX = molecular target: T2, F IX (Homo sapiens, UniProt P00740); experiment: Coagulation factor IX activity in plasma after reducing agent + iodoacetic acid; conditions: 5 min 37° C., then iodoacetic acid
T2 construct: from tissue; host or cells: human citrated blood plasma
T2 sequence (P00740 47-461): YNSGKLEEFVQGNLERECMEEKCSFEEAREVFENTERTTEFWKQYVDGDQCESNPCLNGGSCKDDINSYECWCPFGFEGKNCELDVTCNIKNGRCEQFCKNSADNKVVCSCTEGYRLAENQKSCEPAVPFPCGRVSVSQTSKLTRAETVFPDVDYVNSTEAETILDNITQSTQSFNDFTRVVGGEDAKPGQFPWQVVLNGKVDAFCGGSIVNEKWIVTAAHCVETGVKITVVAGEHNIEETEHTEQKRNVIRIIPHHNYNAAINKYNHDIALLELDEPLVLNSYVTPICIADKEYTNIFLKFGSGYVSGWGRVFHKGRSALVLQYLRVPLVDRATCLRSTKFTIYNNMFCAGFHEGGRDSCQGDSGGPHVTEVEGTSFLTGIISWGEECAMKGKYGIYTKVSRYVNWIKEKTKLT
Description: as §1, §2, §3, §4, §5, §6

F XII = molecular target: T3, F XII (Homo sapiens, UniProt P00748); experiment: Coagulation factor XII activity in plasma after reducing agent + iodoacetic acid; conditions: 5 min 37° C., then iodoacetic acid
T3 construct: from tissue; host or cells: human citrated blood plasma
T3 sequence (P00748 20-615): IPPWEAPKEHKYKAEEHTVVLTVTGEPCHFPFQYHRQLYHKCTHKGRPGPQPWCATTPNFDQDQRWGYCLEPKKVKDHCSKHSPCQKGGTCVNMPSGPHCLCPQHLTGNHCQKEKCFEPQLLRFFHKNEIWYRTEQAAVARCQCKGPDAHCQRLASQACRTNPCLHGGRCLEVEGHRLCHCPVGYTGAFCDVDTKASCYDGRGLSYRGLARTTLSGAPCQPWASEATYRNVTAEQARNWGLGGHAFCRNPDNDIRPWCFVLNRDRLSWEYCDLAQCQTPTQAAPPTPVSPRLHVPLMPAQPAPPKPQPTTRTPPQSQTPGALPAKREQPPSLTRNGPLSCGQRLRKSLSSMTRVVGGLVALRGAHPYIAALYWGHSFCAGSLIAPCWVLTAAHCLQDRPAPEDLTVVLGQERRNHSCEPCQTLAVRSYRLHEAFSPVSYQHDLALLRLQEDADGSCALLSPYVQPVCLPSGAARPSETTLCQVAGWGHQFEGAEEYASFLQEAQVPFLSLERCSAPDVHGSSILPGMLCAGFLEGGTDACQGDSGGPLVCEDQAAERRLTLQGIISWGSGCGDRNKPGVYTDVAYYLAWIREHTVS
Description: as §1, §2, §3, §4, §5, §6

[1] = test system: coagulation factors VII, IX, X, XI and XII; experiment: Effect of reducing substance added to blood or plasma on coagulation factors; conditions: addition to blood
factor IX = experiment: Selective decrease of coagulation activity at low temperature (Example 7); conditions: 0.2 mg DTT per ml plasma, 22° C.
Description: By addition of reducing agent, e.g. 0.2 mg DTT per ml plasma, at a low temperature, e.g. 22° C., it is possible to selectively influence the decrease of the coagulation activity in the different factors.

[2] = human, 0.1 mg reducing agent/ml plasma (sample C)
[3] = human, 0.6 mg reducing agent/ml plasma
[4] = human, Table 1 sample D, 0.1 mg DTT/ml plasma
[5] = plasma + 0.14 mg reducing agent
[6] = plasma + 0.28 mg reducing agent

O[C@H](CS)[C@H](O)CS [DTT, dithiothreitol]
activity at 100 µg/mL (F VII; [2]): 87%
activity at 600 µg/mL (F VII; [3]): 0%
activity at 100 µg/mL (F VII; [4]): 21%
Coagulation factor F VII (F VII; plasma + 0.4 mg reducing agent): 6 % of control
activity at 100 µg/mL (F IX; [2]): 129%
activity at 600 µg/mL (F IX; [3]): 0%
activity at 100 µg/mL (F IX; [4]): 16%
Coagulation factor F IX (F IX; plasma + 0.4 mg reducing agent): 8 % of control
activity at 100 µg/mL (F XII; [2]): 78%
activity at 600 µg/mL (F XII; [3]): 0%
activity at 100 µg/mL (F XII; [4]): 18%
Coagulation factor F XII (F XII; plasma + 0.4 mg reducing agent): 0 % of control
content of coagulation factors VII, IX, X, XI and XII in the resulting plasma [1]: reduces the content of the coagulation factors VII, IX, X, XI and XII to a large extent
activity of factor IX compared with factor X (factor IX): the activity of factor IX is not influenced in as high a degree as the activity of factor X

O=C(O)CCCCC1CCSS1 (centres unmarked) [lipoic acid]
activity at 100 µg/mL (F VII; [2]): 252%
Coagulation factor F VII (F VII; plasma + 0.2 mg reducing agent): 203 % of control
Coagulation factor F VII (F VII; plasma + 0.4 mg reducing agent): 285 % of control
activity at 100 µg/mL (F IX; [2]): 58%
Coagulation factor F IX (F IX; plasma + 0.2 mg reducing agent): 52 % of control
Coagulation factor F IX (F IX; plasma + 0.4 mg reducing agent): 58 % of control
activity at 100 µg/mL (F XII; [2]): 74%
Coagulation factor F XII (F XII; plasma + 0.2 mg reducing agent): 78 % of control
Coagulation factor F XII (F XII; plasma + 0.4 mg reducing agent): 98 % of control

[BH4-].[K+] [KBH4, potassium borohydride]
Coagulation factor F VII (F VII; [5]): 131 % of control
Coagulation factor F VII (F VII; [6]): 127 % of control
Coagulation factor F IX (F IX; [5]): 77 % of control
Coagulation factor F IX (F IX; [6]): 71 % of control
Coagulation factor F XII (F XII; [5]): 86 % of control
Coagulation factor F XII (F XII; [6]): 83 % of control

O[C@H](CS)[C@@H](O)CS [DTE, dithioerythritol]
activity at 100 µg/mL (F VII; [2]): 61%
Coagulation factor F VII (F VII; plasma + 0.2 mg reducing agent): 30 % of control
Coagulation factor F VII (F VII; plasma + 0.4 mg reducing agent): 48 % of control
activity at 100 µg/mL (F IX; [2]): 61%
Coagulation factor F IX (F IX; plasma + 0.2 mg reducing agent): 28 % of control
Coagulation factor F IX (F IX; plasma + 0.4 mg reducing agent): 19 % of control
activity at 100 µg/mL (F XII; [2]): 78%
Coagulation factor F XII (F XII; plasma + 0.2 mg reducing agent): 1 % of control
Coagulation factor F XII (F XII; plasma + 0.4 mg reducing agent): 0 % of control

OCCS [mercaptoethanol]
Coagulation factor F VII (F VII; plasma + 0.2 mg reducing agent): 69 % of control
Coagulation factor F VII (F VII; plasma + 0.4 mg reducing agent): 29 % of control
Coagulation factor F IX (F IX; plasma + 0.2 mg reducing agent): 33 % of control
Coagulation factor F IX (F IX; plasma + 0.4 mg reducing agent): 35 % of control
Coagulation factor F XII (F XII; plasma + 0.2 mg reducing agent): 102 % of control
Coagulation factor F XII (F XII; plasma + 0.4 mg reducing agent): 121 % of control
